Measured values as given in patent US11339417B2, “Amplifier system and controls for dielectrophoretic tracking in microfluidic devices” (University of Virginia Patent Foundation, priority 2014, dated 2022).
Values joined by “and” are separate entries in the source; they are usually repeats but may differ in a detail not shown here. Identical values can stand only once.

How the values were obtained:
[1] = tested on: Cryptosporidium parvum oocysts; experiment: Dielectrophoretic characterization of oocysts (DEP tracking, single shell model fit); assay type: cell-based; conditions: 100 mg L^−1 for 4 hours
[2] = tested on: Cryptosporidium parvum oocysts; experiment: Excystation of oocysts after disinfection treatment; assay type: cell-based; conditions: oocysts treated with 100 mg L^−1 for 4 hours; untreated 89.5%
Description: For treatment with silver nanoparticles (AgNPs), the animal infectivity experiment was done after the oocysts were treated with 100 mg L^−1 proteinate capped AgNPs (Argenol) (˜15 nm) for 4 hours.
After each disinfection treatment, the oocysts were treated with 10% bleach (Bleach-Rite) for 30 minutes in a micro-centrifuge tube at room temperature, followed by vortexing every 10 minutes. The suspension was incubated in a microfluidic chamber with a glass cover-slip for an hour, for real-time recording of the excystation; i.e. release of sporozoites from the oocyst. The excystation was examined by inverted microscopy using 63× oil immersion phase and DIC objectives. […] The percentage of the excystation was calculated as: (# of excysted oocytsl # of total oocyst)×100.^29 For mouse model infectivity studies,^12 all mice were malnourished for a period of 13 days before experiments. For every six mice fed with the oocysts for each treatment, three other mice were fed with untreated oocysts as positive control.

[3] = tested on: C. difficile ATCC630 (low-toxigenic, LTCD); experiment: Dielectrophoretic (DEP) characterization of C. difficile LTCD strain after vancomycin treatment; assay type: cell-based, Clostridium difficile; conditions: vancomycin 1 mg/mL, untreated 500 kHz
Description: (§1) Bacteria strains preparation. II three C. difficile strains were purchased from ATCC. The bacteria were cultured in brain heart infusion (BHI) broth (BD BBL Brain Heart Infusion) at 37° C. overnight under anaerobic condition before further antibiotic treatment or dielectrophoretic experiments. 250 μL of the overnight cultured bacteria suspension and 750 μL of the BHI with vancomycin (Novaplus) or without vancomycin for the control groups were mixed in Eppendorf tubes and incubated at 37° C. for 4 hours or 24 hours. The vancomycin concentration for VPI10463 (high-toxigenic, HTCD) was 2 mg/mL and 1 mg/mL for ATCC630 (low-toxigenic, LTCD) and VPI11186 (non-toxigenic, NTCD). […]
(§2) Dielectrophoretic characterization of C. difficile. […] The trajectory of the unlabeled C. difficile of each strain type was observed under this field, as high frame per second movies to quantify the DEP velocity. For experiments within mixed C. difficile samples, the trapped microbials were released and analyzed with the immunoassay to confirm toxigenicity. […]
(§3) FIGS. 2a and 2b show the electrode-less device with external electrodes (1 cm apart) to initiate localized microbial trapping in the constriction region. […] In this manner, as per prior work^33, the translational velocity under the DEP trapping force is measured for ˜20 individual microbial cells to quantify the DEP spectra. […]

[4] = tested on: C. difficile VPI10463 (high-toxigenic, HTCD); experiment: Growth measurement (OD600), HTCD strain; assay type: cell-based, Clostridium difficile
Description: (§4) Growth measurement. 250 μL of the overnight cultured bacteria suspension and 750 μL of the BHI broth, with or without vancomycin were mixed in Eppendorf tubes. The optical density at a wavelength of 600 nm (OD600) of the mixed bacteria suspensions, measured by Spectrophotometry (Eppendorf Biophotometer) before incubation, was indexed as the “0 hour” time point. The OD600 number at later time points (4 and 24 hours) for respective strain at each condition was normalized to its 0 hour point.
(§5) In order to evaluate the sensitivity of DEP methods versus the current state of the art, we benchmark the DEP velocity data for HTCD and NTCD C. difficile strains after various levels of antibiotic treatment versus conventional diagnostic measures for the loss of C. difficile functionality, such as toxin production and growth rate values. To enable the comparison of DEP data across the range of C. difficile strains, we choose a frequency of 1 MHz, since all strains show some level of pDEP before and after antibiotic treatment. For measurements of alteration in toxin production level and growth rate of C. difficile strains after antibiotic treatment, it is necessary to culture the microbial cells with the antibiotic over a period of 4-24 hours, to enable sufficient sensitivity for the measurements. […] Furthermore, the results after antibiotic treatment for a particular period of time are compared against their respective values on untreated microbials for the same period of culture time (this control value for each treatment time is indicated as “Un-0”, “Un-4” or “Un-24” in FIGS. 15c-15e).

[5] = tested on: C. difficile VPI11186 (non-toxigenic, NTCD); experiment: Growth measurement (OD600), NTCD strain; assay type: cell-based, Clostridium difficile
Description: as §4, §5

[6] = tested on: C. difficile VPI10463 (high-toxigenic, HTCD); experiment: Toxicity enzyme-linked immunosorbent assay, total toxin (A/B) production; assay type: cell-based, Clostridium difficile
Description: Toxicity enzyme-linked immunosorbent assay. Total toxin (A/B) production was measured using the C. difficile TOX A/B II kit (Tech-Lab) according to the manufacturer's instructions. Culture supernatants were collected at 0, 4 and 24 hours by centrifugation at 3500 rcf for 5 min and stored at −20° C. The supernatants of the VPI110463 strain were diluted 1 to 20, while the supernatants of the VPI11186 strain were undiluted. Each specimen was run in duplicate. Total toxin levels were determined by measuring A450 under a 96 well plate spectrophotometry. The A450 number at each time point (4 hours and 24 hours) of each strain at each condition was normalized to its 0 hour time point.
as §5

[7] = tested on: C. difficile VPI11186 (non-toxigenic, NTCD); experiment: Dielectrophoretic (DEP) characterization of C. difficile NTCD strain after vancomycin treatment; assay type: cell-based, Clostridium difficile
Description: as §1, §2, §3

[8] = tested on: C. difficile VPI10463 (high-toxigenic, HTCD); experiment: Dielectrophoretic (DEP) characterization of C. difficile HTCD strain after vancomycin treatment; assay type: cell-based, Clostridium difficile
Description: Bacteria strains preparation. II three C. difficile strains were purchased from ATCC. The bacteria were cultured in brain heart infusion (BHI) broth (BD BBL Brain Heart Infusion) at 37° C. overnight under anaerobic condition before further antibiotic treatment or dielectrophoretic experiments. 250 μL of the overnight cultured bacteria suspension and 750 μL of the BHI with vancomycin (Novaplus) or without vancomycin for the control groups were mixed in Eppendorf tubes and incubated at 37° C. for 4 hours or 24 hours. The vancomycin concentration for VPI10463 (high-toxigenic, HTCD) was 2 mg/mL and 1 mg/mL for ATCC630 (low-toxigenic, LTCD) and VPI11186 (non-toxigenic, NTCD). Prior to the dielectrophoresis experiments, the BHI broth was replaced with 8.8% sucrose water and re-adjusted with BHI broth to optimize the medium conductivity 105±5% mS/m for enabling DEP-based distinction of C. difficile strains from mixed samples. All three strains were confirmed to be viable within this altered BHI media over the timeframe of the DEP experiments, as per the colony forming unit (CFU) assay.
as §2, with “difficile. The experimental setup has been described in our prior work. Briefly, Standard PDMS (Poly-di-methyl-siloxane) micro-molding methods were used to micro-fabricate channels with sharp lateral constrictions (1000 μm to 15 μm).” for “difficile.”
as §3

[9] = 4 hours of vancomycin treatment
[10] = 24 hours of vancomycin treatment

Row | SMILES | DEP response of treated versus untreated oocysts at 100 kHz and at 400 kHz [1] | Excystation rate [2] | DEP crossover frequency after vancomycin treatment [3] [kHz] | Growth rate reduction [4, 9] | Relative growth rate (OD600 normalized to 0 hour) [4, 9] [times] | Difference in growth rate versus the control (Un-24) [4, 10] | Relative growth rate (OD600 normalized to 0 hour) [4, 10] [times] | Difference in growth rate versus the untreated sample (Un-4) [5, 9] | Relative growth rate (OD600 normalized to 0 hour) [5, 9] [times] | Difference in growth rate versus the untreated sample (Un-24) [5, 10] | Relative growth rate (OD600 normalized to 0 hour) [5, 10] [times] | Difference in toxin production level versus the control (Un-4) [6, 9] | Relative toxin production (normalized to 0 hour) [6, 9] [times] | Difference in toxin production level versus the control (Un-24) [6, 10] | Relative toxin production (normalized to 0 hour) [6, 10] | DEP crossover frequency after vancomycin treatment ([7]; NTCD strain, vancomycin 1 mg/mL, untreated 900 kHz) [kHz] | DEP velocity after vancomycin treatment ([7]; NTCD, 1 MHz, 4 hours of vancomycin treatment, untreated 16 μm/s) [μm/s] | DEP crossover frequency after vancomycin treatment ([8]; HTCD / hypervirulent TCD strain, vancomycin 2 mg/mL, untreated 300 kHz or 400 kHz) | DEP velocity after vancomycin treatment ([8]; HTCD, 1 MHz, 4 hours of vancomycin treatment, untreated 30.7 μm/s) [μm/s] | DEP behavior at 400 kHz of vancomycin treated cells ([8]; HTCD, 400 kHz, untreated HTCD shows pDEP)
1 | O=[N+]([O-])[O-].[Ag+] [AgNO3, silver nitrate] | not significantly altered | 71.4% and 70% |  |  |  |  |  |  |  |  |  |  |  |  |  |  |  |  |  | 
2 | CN[C@H](CC(C)C)C(=O)N[C@H]1C(=O)N[C@@H](CC(N)=O)C(=O)N[C@H]2C(=O)N[C@H]3C(=O)N[C@H](C(=O)N[C@H](C(=O)O)c4cc(O)cc(O)c4-c4cc3ccc4O)[C@H](O)c3ccc(c(Cl)c3)Oc3cc2cc(c3O[C@@H]2O[C@H](CO)[C@@H](O)[C@H](O)[C@H]2O[C@H]2C[C@](C)(N)[C@H](O)[C@H](C)O2)Oc2ccc(cc2Cl)[C@H]1O [vancomycin] |  |  | 300 | minimal growth rate reduction | 1.51 | 2.2 | 1.61 | 0.74 | 1.1 | 3.3 | 1.05 | 0.55 | 1.05 | 7.5 | small reduction | 600 | ~7 | 600 kHz and 900 kHz | 7.6 | some residual level of nDEP and nDEP
